In the NIST ThermoML archive (doi:10.1016/j.jct.2018.03.011):
± gives the expanded uncertainty stated by the source.

Columns and labels:
[1] = for Normal melting temperature: Crystal; for viscosity / mass density: 101.33 kPa, Liquid; for viscosity: Falling or rolling sphere viscometry; for mass density: Vibrating tube method
[2] = Molar enthalpy of transition or fusion; settings: Crystal; DSC

SMILES: CCCCn1cc[n+](C)c1.[Br-] [1-butyl-3-methylimidazolium bromide]
- Normal melting temperature ([1]; visual observation): 79.0 ± 1.1 °C

SMILES: CCCC[N+]1(C)CCOCC1.[Br-] [4-butyl-4-methylmorpholinium bromide]
- Normal melting temperature ([1]; DTA): 211.1 ± 1.1 °C
- Molar enthalpy of transition or fusion [2]: 3.54 ± 0.263 kcal/mol

SMILES: CC[N+]1(C)CCOCC1.[Br-] [N-ethyl-N-methylmorpholinium bromide]
- Normal melting temperature ([1]; DTA): 172.5 ± 5.1 °C
- Molar enthalpy of transition or fusion [2]: 3.99 ± 0.263 kcal/mol

SMILES: OCCOCCO [diethylene glycol]
- viscosity ([1]; 293.2 K): 38.11 ± 3.8 mPa·s
- mass density ([1]; 293.2 K): 1116.4 ± 1.1 kg/m3
- viscosity ([1]; 298.2 K): 29.82 ± 3 mPa·s
- mass density ([1]; 298.2 K): 1112.8 ± 1.1 kg/m3
- viscosity ([1]; 303.2 K): 23.64 ± 2.4 mPa·s
- mass density ([1]; 303.2 K): 1109.2 ± 1.1 kg/m3
- viscosity ([1]; 308.2 K): 19.02 ± 1.9 mPa·s
- mass density ([1]; 308.2 K): 1105.7 ± 1.1 kg/m3
- viscosity ([1]; 313.2 K): 15.6 ± 1.6 mPa·s
- mass density ([1]; 313.2 K): 1102.1 ± 1.1 kg/m3
- viscosity ([1]; 318.2 K): 12.69 ± 1.3 mPa·s
- mass density ([1]; 318.2 K): 1098.5 ± 1.1 kg/m3
- viscosity ([1]; 323.2 K): 10.62 ± 1.1 mPa·s
- mass density ([1]; 323.2 K): 1094.8 ± 1 kg/m3
- viscosity ([1]; 328.2 K): 8.853 ± 0.89 mPa·s
- mass density ([1]; 328.2 K): 1091.2 ± 1 kg/m3
- viscosity ([1]; 333.2 K): 7.362 ± 0.74 mPa·s
- mass density ([1]; 333.2 K): 1087.5 ± 1 kg/m3
- viscosity ([1]; 338.2 K): 6.208 ± 0.62 mPa·s
- mass density ([1]; 338.2 K): 1083.8 ± 1 kg/m3
- viscosity ([1]; 343.2 K): 5.324 ± 0.54 mPa·s
- mass density ([1]; 343.2 K): 1080.1 ± 1 kg/m3

SMILES: O=S1(=O)CCCC1 [sulfolane]
- viscosity ([1]; 308.2 K): 9.194 ± 0.92 mPa·s
- mass density ([1]; 308.2 K): 1257.4 ± 1.1 kg/m3
- viscosity ([1]; 313.2 K): 8.116 ± 0.82 mPa·s
- mass density ([1]; 313.2 K): 1253 ± 1.1 kg/m3
- viscosity ([1]; 318.2 K): 7.201 ± 0.72 mPa·s
- mass density ([1]; 318.2 K): 1248.6 ± 1.1 kg/m3
- viscosity ([1]; 323.2 K): 6.439 ± 0.65 mPa·s
- mass density ([1]; 323.2 K): 1244.2 ± 1.1 kg/m3
- viscosity ([1]; 328.2 K): 5.772 ± 0.58 mPa·s
- mass density ([1]; 328.2 K): 1239.8 ± 1.1 kg/m3
- viscosity ([1]; 333.2 K): 5.199 ± 0.52 mPa·s
- mass density ([1]; 333.2 K): 1235.5 ± 1.1 kg/m3
- viscosity ([1]; 338.2 K): 4.714 ± 0.47 mPa·s
- mass density ([1]; 338.2 K): 1231.1 ± 1.1 kg/m3
- viscosity ([1]; 343.2 K): 4.268 ± 0.43 mPa·s
- mass density ([1]; 343.2 K): 1226.7 ± 1.1 kg/m3

SMILES: OCCOCCOCCO [triethylene glycol]
- viscosity ([1]; 293.2 K): 48.32 ± 4.9 mPa·s
- mass density ([1]; 293.2 K): 1123.1 ± 1.1 kg/m3
- viscosity ([1]; 298.2 K): 37.16 ± 3.8 mPa·s
- mass density ([1]; 298.2 K): 1119.2 ± 1.1 kg/m3
- viscosity ([1]; 303.2 K): 29.27 ± 2.9 mPa·s
- mass density ([1]; 303.2 K): 1115.4 ± 1.1 kg/m3
- viscosity ([1]; 308.2 K): 23.74 ± 2.4 mPa·s
- mass density ([1]; 308.2 K): 1111.5 ± 1.1 kg/m3
- viscosity ([1]; 313.2 K): 19.26 ± 1.9 mPa·s
- mass density ([1]; 313.2 K): 1107.6 ± 1.1 kg/m3
- viscosity ([1]; 318.2 K): 16.41 ± 1.6 mPa·s
- mass density ([1]; 318.2 K): 1103.8 ± 1.1 kg/m3
- viscosity ([1]; 323.2 K): 13.51 ± 1.4 mPa·s
- mass density ([1]; 323.2 K): 1099.9 ± 1.1 kg/m3
- viscosity ([1]; 328.2 K): 11.35 ± 1.1 mPa·s
- mass density ([1]; 328.2 K): 1096 ± 1.1 kg/m3
- viscosity ([1]; 333.2 K): 9.602 ± 0.97 mPa·s
- mass density ([1]; 333.2 K): 1092.1 ± 1.1 kg/m3
- viscosity ([1]; 338.2 K): 8.278 ± 0.83 mPa·s
- mass density ([1]; 338.2 K): 1088.2 ± 1.1 kg/m3
- viscosity ([1]; 343.2 K): 7.351 ± 0.74 mPa·s
- mass density ([1]; 343.2 K): 1084.3 ± 1 kg/m3
